Structures are written as SMILES.

Usually melting point stands for the temperature, or range, at which the solid turns liquid. In the case of `CC1CCCN(c2ccc(-c3c4cccc(C(F)(F)F)c4nn3Cc3c(F)cc(F)cc3F)cc2)C1` (stereo not drawn), the melting point came out at 103 °C.
The value for `COC(=O)C[C@H]1CCCN(c2ccc(-c3c4cccc(C(F)(F)F)c4nn3Cc3c(F)cc(F)cc3F)cc2)C1` was 103 °C; that for `COC(=O)C[C@@H]1CCCN(c2ccc(-c3c4cccc(C(F)(F)F)c4nn3Cc3c(F)cc(F)cc3F)cc2)C1` was 103 °C.
With `COc1ccc(-c2c3cccc(C(F)(F)F)c3nn2CC(C)C)c(OC)c1` [Example 106, 3-(2,4-DIMETHOXYPHENYL)-2-ISOBUTYL-7-(TRIFLUOROMETHYL)-2H-INDAZOLE] the figure was 111 to 112 °C; with `COc1ccc(-c2c3cccc(C(F)(F)F)c3nn2CC2CCCCC2)c(OC)c1` [Example 107, 2-(CYCLOHEXYLMETHYL)-3-(2,4-DIMETHOXYPHENYL)-7-(TRIFLUOROMETHYL)-2H-INDAZOLE], 156 to 157 °C.
The value for `COc1ccc(-c2c3cccc(C(F)(F)F)c3nn2C2CCC2)c(OC)c1` [Example 109, 2-CYCLOBUTYL-3-(2,4-DIMETHOXYPHENYL)-7-(TRIFLUOROMETHYL)-2H-INDAZOLE] was 51 to 52 °C; that for `CCC(CC)n1nc2c(C(F)(F)F)cccc2c1-c1ccc(OC)cc1OC` [Example 110, 3-(2,4-DIMETHOXYPHENYL)-2-(1-ETHYLPROPYL)-7-(TRIFLUOROMETHYL)-2H-INDAZOLE] was 138 to 139 °C; that for `Fc1ccc(-c2c3cccc(C(F)(F)F)c3nn2Cc2c(F)cc(F)cc2F)cc1` [Example 139, 3-(4-FLUOROPHENYL)-2-(2,4,6-TRIFLUOROBENZYL)-7-(TRIFLUOROMETHYL)-2H-INDAZOLE] was 125 °C.
With `Fc1ccc(-c2c3cccc(N4CCCC4)c3nn2Cc2ccc(F)cc2F)cc1` [Example 426, 2-(2,4-DIFLUOROBENZYL)-3-(4-FLUOROPHENYL)-7-PYRROLIDIN-1-YL-2H-INDAZOLE], the melting point was 112 to 114 °C.

Source of the values: patent publication US7592363B2, “Indazoles” (Wyeth, priority 2004, dated 2009).
